In ChEMBL document CHEMBL1201862, “PubChem BioAssay data set” (2004):
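Interpolation was linear, between the two tested concentrations surrounding the appropriate level; five concentrations were tested over 48 hours in 96-well plates. GI50: concentration for 50% inhibition of growth.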 Activity calls are given as the source filed them. Cut-off read from the data, not from the text of the source: active = GI50 up to about 1.1 µM and inactive = higher.

Legend:
Assay in all cases: DTP human tumour cell line panel, 48 h
[1] = system: HCT-15
[2] = system: IGROV-1
[3] = system: U-251
[4] = system: HOP-62
[5] = system: KM12
[6] = system: Malme-3M
[7] = system: RXF 393
[8] = system: CCRF-CEM
[9] = system: SF-539
[10] = system: ACHN
[11] = system: SK-MEL-5
[12] = system: NCI-H226
[13] = system: SK-OV-3
[14] = system: K562
[15] = system: HCT-116
[16] = system: MOLT-4
[17] = system: A498
[18] = system: SN12C
[19] = system: TK-10
[20] = system: SNB-75

Compound	GI50 [1]	GI50 [2]	GI50 [3]	GI50 [4]	GI50 [5]	GI50 [6]	GI50 [7]	GI50 [8]	GI50 [9]	GI50 [10]	GI50 [11]	GI50 [12]	GI50 [13]	GI50 [14]	GI50 [15]	GI50 [16]	GI50 [17]	GI50 [18]	GI50 [19]	GI50 [20]
COc1cc(/C=N/N=C(\N)NO)cc(Cl)c1O	66.8 µM	69.7 µM (inactive)	48.9 µM (inactive)	35.7 µM (inactive)	78 µM (inactive)	55.2 µM (inactive)	11.5 µM (inactive)	38.1 µM (inactive)	34.4 µM (inactive)	34.4 µM (inactive)	33.4 µM (inactive)	22.8 µM (inactive)	55.8 µM (inactive)	53.2 µM (inactive)	55.7 µM (inactive)	50.2 µM (inactive)	34.4 µM (inactive)	48.8 µM (inactive)	–	–
CC1=NN(c2cccc(Cl)c2)C2(SCC(=O)N2c2nc3ccccc3s2)C1=CC=Cc1ccccc1 (stereo not given)	29.2 µM	31.3 µM (inactive)	17.8 µM (inactive)	36.1 µM (inactive)	31.2 µM (inactive)	–	25.5 µM (inactive)	3.4 µM (inactive)	44.1 µM (inactive)	22.3 µM (inactive)	18.9 µM (inactive)	53 µM (inactive)	27.4 µM (inactive)	13.3 µM (inactive)	22.6 µM (inactive)	19.1 µM (inactive)	20.7 µM (inactive)	–	62.4 µM (inactive)	–
Cc1ccc(-c2nc3cc(F)c(N4CCN(C)CC4)cc3[nH]2)cc1	6.32 µM	22.7 µM (inactive)	29.5 µM (inactive)	15.8 µM (inactive)	14 µM (inactive)	15.3 µM (inactive)	18.5 µM (inactive)	23.4 µM (inactive)	–	21.1 µM (inactive)	11.4 µM (inactive)	8.3 µM (inactive)	23.4 µM (inactive)	16.4 µM (inactive)	19.6 µM (inactive)	22.8 µM (inactive)	32.7 µM (inactive)	54.1 µM (inactive)	22.2 µM (inactive)	–
CCCCNC(=O)c1cc(S(=O)(=O)n2ccnc2O)c(SC)cc1Cl	> 100 µM	> 100 µM (inactive)	> 100 µM (inactive)	> 100 µM (inactive)	> 100 µM (inactive)	> 100 µM (inactive)	> 100 µM (inactive)	> 100 µM (inactive)	> 100 µM (inactive)	> 100 µM (inactive)	> 100 µM (inactive)	–	> 100 µM (inactive)	> 100 µM (inactive)	> 100 µM (inactive)	> 100 µM (inactive)	26.1 µM (inactive)	> 100 µM (inactive)	> 100 µM (inactive)	–
CC(=O)c1ccccc1NP(=O)(c1ccccc1)c1ccccc1	66.4 µM	46.5 µM (inactive)	96.6 µM (inactive)	> 100 µM (inactive)	50.7 µM (inactive)	34 µM (inactive)	43.2 µM (inactive)	33.5 µM (inactive)	70.3 µM (inactive)	> 100 µM (inactive)	47.3 µM (inactive)	–	20.4 µM (inactive)	62.5 µM (inactive)	53.2 µM (inactive)	32.1 µM (inactive)	31.4 µM (inactive)	69.5 µM (inactive)	40.8 µM (inactive)	–
Cc1nc2ccccc2c(=O)n1/N=C(\N=N\c1ccc(Cl)cc1)c1cccc(-c2ccco2)c1	30.2 µM	31.3 µM (inactive)	27.5 µM (inactive)	22.5 µM (inactive)	–	–	20.3 µM (inactive)	24.6 µM (inactive)	28.6 µM (inactive)	30.5 µM (inactive)	18.9 µM (inactive)	–	30.3 µM (inactive)	22.3 µM (inactive)	19.1 µM (inactive)	22.4 µM (inactive)	61.8 µM (inactive)	29.2 µM (inactive)	51.5 µM (inactive)	–
Cc1cc([N+](=O)[O-])ccc1NC(=O)C(=O)C(C(=O)c1ccccc1-c1ccccc1)C1OC(=O)c2ccccc21 (stereo not given)	15.1 µM	19.6 µM (inactive)	12.5 µM (inactive)	–	15 µM (inactive)	13.1 µM (inactive)	4.85 µM (inactive)	22.9 µM (inactive)	9.02 µM (inactive)	31.3 µM (inactive)	15 µM (inactive)	12.2 µM (inactive)	22.7 µM (inactive)	25.4 µM (inactive)	16 µM (inactive)	15.6 µM (inactive)	> 10 µM (inactive)	15.8 µM (inactive)	17.8 µM (inactive)	–
C1CC[N+]23CCCC[N+]2(C1)CCCC3 (stereo not given)	> 100 µM	> 100 µM (inactive)	> 100 µM (inactive)	> 100 µM (inactive)	–	> 100 µM (inactive)	–	> 100 µM (inactive)	–	> 100 µM (inactive)	> 100 µM (inactive)	> 100 µM (inactive)	> 100 µM (inactive)	> 100 µM (inactive)	> 100 µM (inactive)	> 100 µM (inactive)	> 100 µM (inactive)	> 100 µM (inactive)	> 100 µM (inactive)	> 100 µM (inactive)
